Data on three molecules can be found in publication PMC6661766, “Antimicrobial, antioxidant and cytotoxic evaluation of diazenyl chalcones along with insights to mechanism of interaction by molecular docking studies” (BMC Chemistry, 2019).

Series [1] relates to B. cereus. Kind of series: Antimicrobial serial tube dilution, MIC and MBC. The format is cell-based, Bacillus cereus MTCC 1305. To be noted: Bacillus cereus.
Series [2] relates to S. typhi. The series can be described thus: Antimicrobial serial tube dilution, MIC and MBC. The series is classed as cell-based, Salmonella typhi MTCC 3216. To be noted: Salmonella enterica, TYPHI.
The test system of series [3] is E. coli. Kind of series: Antimicrobial serial tube dilution, MIC and MBC. The series is classed as cell-based, Escherichia coli MTCC 1652.
Series [4] deals with S. aureus. Kind of series: Antimicrobial serial tube dilution, MIC and MBC. The series is classed as cell-based, Staphylococcus aureus MTCC 2901. To be noted: Staphylococcus aureus.
Series [5] deals with B. subtilis. The series can be described thus: Antimicrobial serial tube dilution, MIC and MBC. To be noted: Bacillus subtilis. The series is classed as cell-based, Bacillus subtilis MTCC 2063.
The subject of series [6] is C. albicans. Kind of series: Antimicrobial serial tube dilution, MIC and MFC. The series is classed as cell-based, Candida albicans MTCC 227.
Series [7] relates to A. fumigatus. The series can be described thus: Antimicrobial serial tube dilution, MIC and MFC. The format is cell-based, Aspergillus fumigatus MTCC 2584.
Series [8] can be described thus: DPPH scavenging antioxidant assay. For orientation: The DPPH test is a chemical assay of radical scavenging.
Series [9] has as its system A549 human lung cancer cell line. The series can be described thus: MTT cytotoxicity assay, A549. The format is cell-based. To be noted: Homo sapiens, A549; MTT, 48 h. Here is the method: (§1) The cell lines employed in the investigation were purchased from the National Centre for Cell Sciences (NCCS), Pune, India. The cell lines were cultured in DMEM fortified with 10% FBS, L-glutamine, sodium bicarbonate, and solution of antibiotics (streptomycin 100 μg ml^−1 + penicillin-100 U ml^−1). The culture of cell lines was stored under 5% CO2 incubation at 37 °C.
(§2) The compounds showing maximum activity (antimicrobial and antioxidant potential) were screened for cytotoxicity against A549 and HEK cell lines using MTT assay. Initially, 96-well microculture plate was seeded with 1 × 10^4 cells in 100 µl/well DMEM/MEM, supplemented with 10% FBS followed by incubation at a temperature of 37 °C for a period of 24 h under 5% CO2 atmosphere. After that, the test compounds and camptothecin were added to the cells to achieve a concentration of 10, 25, 50 and 100 µg. MTT reagent (10 µl) of concentration of 5 mg ml^−1 added to all the wells after the duration of 48 h. The plate was incubated further for 4 h followed by careful removal of supernatant from each well. To dissolve the formazan crystals, 100 µl of DMSO was added, and the ELISA reader was used to check the absorbance at 570 nm wavelength. In order to calculate the IC50 concentration, the following equation, i.e. A = Bx + C, was used. In this case, A = 50, while the values B and C values were obtained from the survival curve plot. This study was carried out in duplicate.

The subject of series [10] is HEK human embryonic kidney cells. Kind of series: MTT cytotoxicity assay, HEK. The series is classed as cell-based. Conditions: 48 h. As to the method:
as §1, §2
(Formazan colour is commonly taken as a measure of viable cells.)

In series [11] the test system is tested bacterial strains. The series can be described thus: Antimicrobial serial tube dilution, ranges over several bacterial strains. The series is classed as cell-based. Conditions: B. cereus, S. typhi and S. aureus. As to the method: (§3) The synthesized diazenyl chalcones (C18 to C27) and controls (dyes A and E, and chalcone) were assessed for their antimicrobial activity by estimation of MIC and MBC/MFC values. […] The stock solutions of the test compounds and standard drugs having a concentration of 1000 µg ml^−1 were prepared by dissolving the used compounds in DMSO. The nutrient broth/Sabouraud dextrose broth was used for the serial dilution of the test compounds and referenced drugs for bacterial and fungal cultures, respectively. […] The size of the final inoculum in each test tube was taken as 5 × 10^5 CFU ml^−1. The incubation of the test and standard compounds of varying concentrations was done for 24 h at 37 ± 2 °C (bacterial culture) and for 48 h at 37 ± 2 °C (C. albicans) and for 7 d at 25 ± 2 °C (A. fumigatus). The diazenyl chalcones (C18–C27), were further evaluated for their bactericidal/fungicidal activity by estimation of MBC/MFC values. […] For proper mixing of culture media, the plates were shaken gently followed by incubation at the predefined temperature and time as stated earlier, followed by the visual inspection of the plates for signs of microbial growth.

Series [12] deals with fungal strains. The series can be described thus: Antimicrobial serial tube dilution, ranges over fungal strains. The series is classed as cell-based. To be noted: read-out: IC50 against fungal strains. As to the method: as §3
In series [13] the test system is HEK human embryonic kidney cells. Details: method as in PMID 27302903. Conditions: cited from earlier work.

Converted amounts (≈) assume the structure as drawn. Read-outs that look alike come from different tables or passages of the source.

Turning to `O=C(/C=C\c1ccco1)c1ccc(N=Nc2c(O)cccc2O)cc1` [Compound C-24, (2Z)-1-(4-((2,6-Dihydroxyphenyl)diazenyl)phenyl)-3-(furan-2-yl)prop-2-en-1-one], the melting point lay within 315 to 317 °C. The MIC in series [1] (24 h, read-out: B. cereus MIC) amounted to 15.6 µg/mL (≈ 46.7 µM). Besides, the MBC in [1] (read-out: B. cereus MBC) was determined as 15.6 µg/mL (≈ 46.7 µM). Further, the MIC in series [2] (24 h, read-out: S. typhi MIC) came to 7.58 µg/mL (≈ 22.7 µM). Further, the MBC in [2] (read-out: S. typhi MBC) came to 15.6 µg/mL (≈ 46.7 µM). Further, the “E. coli MIC” value in series [3] (24 h at 37 ± 2 °C) stood at 15.62 µg/mL. Moreover, in series [3] (Escherichia coli, 24 h, read-out: E. coli MIC, 24 h at 37 ± 2 °C), the MIC fell in the range of 7.81 to 15.6 µg/mL (≈ 23.4 to 46.7 µM). In addition, the MBC in series [3] (Escherichia coli, read-out: E. coli MBC) came to 31.2 µg/mL (≈ 93.5 µM). Also, the MIC in [4] (24 h, read-out: S. aureus MIC) came out at 15.6 µg/mL (≈ 46.7 µM). Besides, the MBC in series [4] (read-out: S. aureus MBC) came to 15.6 µg/mL (≈ 46.7 µM). Further, the MIC in series [5] (24 h, read-out: B. subtilis MIC) was determined as 31.2 µg/mL (≈ 93.5 µM). The MBC in [5] (read-out: B. subtilis MBC) came to 62.5 µg/mL (≈ 187 µM). Besides, the minimum inhibitory concentration (MIC) in series [6] (Candida albicans, 48 h, read-out: C. albicans MIC) is 62.5 µg/mL (≈ 187 µM). Also, in series [6] (Candida albicans, read-out: C. albicans MFC), the MFC worked out at 125 µg/mL (≈ 374 µM). Further, the minimal inhibitory concentration (MIC) in series [7] (Aspergillus fumigatus, 168 h, read-out: A. fumigatus MIC) is 125 µg/mL (≈ 374 µM). For the same molecule, the MFC in series [7] (Aspergillus fumigatus, read-out: A. fumigatus MFC) turned out to be 125 µg/mL (≈ 374 µM). The “IC50 DPPH” value in [8] worked out at 15.88 µg/mL (≈ 47.5 µM). Also, the “% inhibition of DPPH” value in series [8] (1.56 µg ml^−1) worked out at 24.16%. Further, the “% inhibition of DPPH” value in [8] (3.12 µg ml^−1) was found to be 26.13%. In [8] (6.25 µg ml^−1), the “% inhibition of DPPH” value turned out to be 34.65%. For the same molecule, in series [8] (12.5 µg ml^−1), the “% inhibition of DPPH” value is 54.71%. The “% inhibition of DPPH” value in series [8] (25 µg ml^−1) stood at 77.38%. For the same molecule, the “% inhibition of DPPH” value in [8] (50 µg ml^−1) amounted to 96.46%. Besides, the “% inhibition of DPPH” value in series [8] (100 µg ml^−1) was 99.17%. The “log IC50 DPPH” value in series [8] (Fig. 1) is listed as 1.201. In addition, the IC50 in series [9] was found to be 109 ± 3.21 µg/mL (≈ 326 µM). In series [10], inhibition was half-maximal at 280.4 ± 1.21 µg/mL (≈ 839 µM) (IC50). For the same molecule, in series [11], the MBC range was in the range of 15.62 to 31.25 µg/mL and the MIC range lay in the range of 7.81 to 15.62 µg/mL.
As to `OC(Cn1cncn1)(Cn1cncn1)c1ccc(F)cc1F` [Fluconazole, fluconazole, reference compound], the MIC in series [6] (Candida albicans; 48 h at 37 ± 2 °C; read-out: C. albicans MIC) amounted to 7.81 µg/mL (≈ 25.5 µM); in series [7] (Aspergillus fumigatus, 168 h; 7 d at 25 ± 2 °C; read-out: A. fumigatus MIC), 15.6 µg/mL (≈ 51 µM). The MFC was determined as 31.2 µg/mL (≈ 102 µM) in series [6] (Candida albicans; read-out: C. albicans MFC) and 125 µg/mL (≈ 408 µM) in series [7] (Aspergillus fumigatus; read-out: A. fumigatus MFC). In addition, the IC50 in series [12] fell in the range of 7.81 to 15.6 µg/mL (≈ 25.5 to 51 µM).
Consider `CC[C@@]1(O)C(=O)OCc2c1cc1n(c2=O)Cc2cc3ccccc3nc2-1` [Std, camptothecin, reference compound], for which the IC50 in [9] was found to be 8.7 µg/mL (≈ 25 µM). For the same molecule, in [13], the “HEK IC50” value is 9.0 [28] µg ml^−1.

A word on the MIC: it is the least concentration at which growth counts as inhibited. A word on the MBC: it is the smallest concentration meeting the test's criterion for killing. As a reminder, the MFC is the smallest concentration meeting the test's criterion for killing the fungus. As usually defined, the IC50 is the concentration that gives 50% inhibition. One may read the melting point as the temperature, or range, at which the solid turns liquid.
